Legend:
[1] = pharmacokinetic tests conducted in animals; type: in vivo; details: compared with related compounds of U.S. Publication No. 2007/0010524A1
[2] = system: human peripheral blood mononuclear cells (PBMC) differentiating into osteoclasts; assay: Inhibition of formation of osteoclasts in vitro; type: cell-based; details: Osteoclast, 504 h, 100 nM, M-CSF and RANKL 50 ng/ml each, day 21, over the untreated control, read-out: inhibition of osteoclast formation (TRAP+ multinuclear cells)
Experimental: PBMC were prepared by layering human whole blood over a Ficoll ague plus (Amersham) gradient and centrifuging 45 minutes at 400 g. The interface of white cells is removed and washed twice with PBS, and placed in culture in RPMI with 10% FBS.
CCR1 is expressed on both osteoclast precursor cells and mature osteoclasts and modulates osteoclast formation and maturation. To evaluate the ability of the 1.016 compound to block osteoclast formation in vitro, human peripheral blood mononuclear cells (PBMC) were cultured in the presence of M-CSF (50 ng/ml) and RANKL (50 ng/ml), which induces the monocyte subpopulation to differentiate into giant multinucleated osteoclasts over 21 days. Compound 1.016 was added at a concentration of 100 nM to the culture media on day one and the compound/medium was changed twice weekly. On day 21, cells were fixed and stained for tartrate-resistant acid phosphatase (TRAP) (acid phosphatase leukocyte staining kit, Sigma, Mo.) and TRAP^+ multinuclear (3 or more nuclei) cells were quantified by light microscopy. Osteoclast formation in the presence of 1.016 was inhibited by ˜40% over the untreated control.

[3] = system: Rabbit Model of Destructive Joint Inflammation; assay: Rabbit model of destructive joint inflammation (rabbit LPS study); type: in vivo; details: oral, 2 h before and 4 h after intra-articular LPS (10 ng); lavage 16 h after LPS
Experimental: A rabbit LPS study was conducted essentially as described in Podolin, et al. J. Immunol. 169(11):6435-6444 (2002). Female New Zealand rabbits (approximately 2 kilograms) were treated intra-articularly in both knees with LPS (10 ng). The compound of interest, for example 1.016, (formulated in 1% methocel) or vehicle (1% methocel) was dosed orally at a 5 ml/kg dose volume at two times (2 hours before the intra-articular LPS injection and 4 hours after the intra-articular LPS injection). Sixteen hours after the LPS injection, knees were lavaged and cells counts were performed. Beneficial effects of treatment were determined by reduction in the number of inflammatory cells recruited to the inflamed synovial fluid of the knee joints.

[4] = system: Rat Model of Collagen Induced Arthritis; assay: Rat model of collagen induced arthritis; type: in vivo; details: female Lewis rats; 150 mg/kg oral, twice daily, day 9 to day 17
Experimental: A 17 day developing type II collagen arthritis study was conducted to evaluate the effects of a compound of interest on arthritis induced clinical ankle swelling. Rat collagen arthritis is an experimental model of polyarthritis that has been widely used for preclinical testing of numerous anti-arthritic agents (see Trentham, et al., J. Exp. Med. 146(3):857-868 (1977), Bendele, et al., Toxicologic Pathol. 27:134-142 (1999), Bendele, et al., Arthritis Rheum. 42:498-506 (1999)). The hallmarks of this model are reliable onset and progression of robust, easily measurable polyarticular inflammation, marked cartilage destruction in association with pannus formation and mild to moderate bone resorption and periosteal bone proliferation.
To measure the efficacy of CCR1 antagonists on the development of collagen induced arthritis in rats, compound 1.016 was evaluated in groups of 20 female Lewis rats. Animals were injected with 300 μl of Freund's Incomplete Adjuvant (Difco, Detroit, Mich.) containing 2 mg/ml bovine type II collagen (Elastin Products, Owensville, Mo.) at the base of the tail and 2 sites on the hack on days 0 and 6. Dosing by oral route (150 mg/kg; oral, twice daily) was initiated on day 9 of established disease (day 0 of arthritis) and continued through day 17 (day 7 of arthritis). On arthritis day 7, animals were euthanized for tissue collection. Hind paws were transected at the level of the medial and lateral malleolus, weighed and placed in formalin for microscopy. Osteoclasts were counted in 5, 400× magnification fields in ankle and knee of each joint and the mean number for the joint determined. Collagen arthritic ankles are also given scores of 0-5 (0 indicating normal and 5 indicating severe) for bone resorption according to established criteria.

## COc1cc(N2CCN(C(=O)Cn3nc(-c4ncc[nH]4)c4cccnc43)CC2)ccc1Cl [compound 1.016, 1-[4-(4-Chloro-3-methoxy-phenyl)-piperazin-1-yl]-2-[3-(1H-imidazol-2-yl)-pyrazolo[3,4-b]pyridin-1-yl]-ethanone]
[1]
  AUC: increased
  Cmax: increased
  oral bioavailability: improved
[2]
  inhibition at 0.1 µM: ~40%
[3]
  recruited inflammatory cells in synovial fluid of the knee joints: significant reduction
[4]
  bone resorption (score 0-5): reduction in bone resorption
  clinical changes associated with established type II collagen arthritis: effectively inhibited
  joint swelling assessed by caliper measurements: reduction in joint swelling
  osteoclasts in ankle and knee (histopathology): reduction of osteoclasts

From patent US20100113472A1, “COMPOUNDS FOR THE TREATMENT OF OSTEOPOROSIS AND CANCERS” (ChemoCentryx, Inc., priority 2008, published 2010)
